Measurements published in US9738664B2, “Boronic acid inhibitors of HIV protease” (WISCONSIN ALUMNI RESEARCH FOUNDATION, priority 2014, dated 2017).

What was measured:
HIV-1 protease = target: T1, HIV-1 protease (Human immunodeficiency virus type 1 group M subtype B, UniProt P03367, C567A/C595A/L533I/L563I/Q507K); test: biochemical
T1 construct: Double-stranded, linear DNA encoding HIV-1 protease; 8xHis (self-cleavable) (N, cleaved yes); made in house
Procedure: This peptide was used as a fluorogenic substrate for HIV protease by monitoring the fluorescence of the Edans group (5-((2-aminoethyl)amino)naphthalene-1-sulfonic acid) upon substrate hydrolysis and separation from the quenching Dabcyl group (4-((4-(dimethylamino)phenyl)azo)benzoic acid, succinimidyl ester. [6] Substrate was dissolved at 1 mM by sonication in DMF containing TFA (0.1% v/v). Stock solutions of each putative HIV protease inhibitor were generated by dissolving the inhibitor in DMF to a concentration of 50 mM and diluting in DMF to ˜100×stocks of the final assay concentrations. Assays were performed in 50 mM sodium acetate buffer, pH 5.0, containing NaCl (100 mM). Wells in a microtiter plate were charged initially with inhibitor (various concentrations) and substrate (final concentration: 10 μM). HIV protease was then added (final concentration: 50-150 μM). Reaction velocities in the assay solutions (total volume: 200 μL) were measured in quadruplicate at 7-9 inhibitor concentrations including no-inhibitor and no-enzyme controls.

MT-4 cells = test: Toxicity for MT-4 cells (growth inhibition); format: cell-based, human; details: concentrations up to 1 mM
HIV = test: Inhibition of HIV cytopathic toxicity in MT-4 cells (MTS cell viability); format: cell-based; details: virus from pNL4-3 at 100×TCID50, 7 days, MTS assay (FIG. 3)
Procedure: The ability of B-darunavir to inhibit the cytopathic toxicity of HIV was determined by standard methods (11). Briefly, both human lymphocyte cell line MT-4 and plasmid pNL4-3, which directs the production of infectious virions (12), were obtained from the NIH AIDS Reagent Program. […] Then, MT-4 cells were transfected with plasmid pNL4-3. Maximal virus production was detected on Day 6 post-transfection. Viral inhibition assays were conducted with 25,000 MT-4 cells in 200 μL of RPMI medium containing fetal bovine serum (10% v/v). Infections were conducted with virus at 100×TCID50 by resuspending pelleted cells in 500 μL of virus-containing medium and incubating for 4 h prior to plating with B-darunavir. After 7 days, the loss of HIV cytopathic toxicity was assessed by measuring cell viability using the MTS assay from Promega (Madison, Wis.).

| Structure (SMILES) | Ki (HIV-1 protease) | inhibition of the growth of MT-4 cells (toxicity) (MT-4 cells) | concentration that inhibits the toxicity of HIV for human lymphocytes (HIV) |
| --- | --- | --- | --- |
| CC(C)CN(C[C@@H](O)[C@H](Cc1ccccc1)NC(=O)O[C@H]1CCOC1)S(=O)(=O)c1ccc(B(O)O)cc1 [B-Amprenavir (6)] | 2.1 ± 0.3 pM |  |  |
| CC(C)CN(C[C@@H](O)[C@H](Cc1ccccc1)NC(=O)O[C@H]1CO[C@H]2OCC[C@H]21)S(=O)(=O)c1ccc(B(O)O)cc1 [B-Darunavir (9)] |  | not to cause a significant inhibition of the growth of MT-4 cells | ≥ 100 nM |
